Experimental data published in a melting point compilation (Tetko et al.; mined from patent text by program, amines drawn as free bases though some values may be those of a salt).

melting point | Compound
225 °C | N#CCCn1c2ccccc2c2cc([N+](=O)[O-])ccc21
46 to 47 °C | CN(C)C(=O)c1cncn1C
308 to 311 °C | N#Cc1cc2cc(Br)ccc2[nH]c1=O
70 to 72 °C | Cc1ccn(-c2cncc(F)c2)n1
> 325 °C | CN1CCc2c(c(P(=O)(O)O)cc3[nH]c(=O)c(=O)[nH]c23)C1
253 to 257 °C | CC(C)(C)c1cc(NC(=O)c2cccc(C(=O)O)c2)cc(C(C)(C)C)c1O
114 to 116 °C | O=C(CS(=O)c1cccs1)C12CC3CC(CC(C3)C1)C2 (stereo unspecified)
182 to 183 °C | Cc1c(C(=O)Nc2ccc(Oc3ccccc3)c(C#N)c2)cnn1-c1ccc(F)cc1
215 to 218 °C | COc1cc(C)nc(NC(=O)NS(=O)(=O)c2cccc3c2OS(=O)(=O)C(C)C3)n1 (stereo unspecified)
159 to 161 °C | COc1ccc(CC(SC(C)=O)C(N)=O)cc1C(=O)NCc1ccc(C(F)(F)F)cc1 (stereo unspecified)
167 °C | CCCCOC(=O)C(O)C1OC(n2cnc3c(N)ncnc32)C(O)C1O (stereo unspecified)
105 to 107 °C | COCCn1cc(C#N)c(N)n1
102 to 104 °C | C[C@H](O)C(=O)Nc1ccccn1
231 to 233 °C | CNN(NC)C(=O)Nc1cccc2c1C(=O)c1c-2n[nH]c1C(C)C
65 to 68 °C | COc1cccc2c1OC(CO)CN2C(=O)OC(C)(C)C (stereo unspecified)
195 to 197 °C | O=C(Nc1cccc2c1C(=O)c1c-2n[nH]c1C1CCN(C(=O)N2CCNCC2)CC1)NN1CCOCC1
102 to 104 °C | CC(=O)c1nc2c(OCc3ccccc3)cccc2n1C
164 to 165 °C | COc1ccc(O)c(OC)c1-c1ccc(C[C@H](NC(=O)c2c(Cl)cccc2Cl)C(=O)O)cc1
80 to 82 °C | CCC(C(=O)N(CC)CC)n1cc(C)c(-c2ccccc2)n1 (stereo unspecified)
61 to 63 °C | CCOC(=O)CN1CCC(CNc2ccc(Cl)cc2C(=O)Nc2ccc(Cl)cn2)CC1
225 to 230 °C | CC(C)C(/C=C/C(=O)O)=C(c1ccc(F)cc1)c1ccc(F)cc1
187 to 189 °C | CCCCc1c2c(cc3ccc(O)cc13)-c1ccc(O)cc1CO2
118 to 120 °C | Cc1c(C)c2c(c(C)c1N)CC(C)(CN1CCC(O)(c3ccc(Cl)cc3)CC1)O2 (stereo unspecified)

melting point | Compound
93.5 to 94 °C | COc1cccc(-c2nc(N)nc(Nc3ccc(O)cc3)n2)c1
317 to 320 °C | CS(=O)(=O)c1ccc(-c2nc(C(F)(F)F)nc(N=[N+]=[N-])c2-c2ccc(Cl)cc2)cc1
115 to 118 °C | O=C(c1ccccc1)c1ccc(Nc2nc(Nc3ccc(C(=O)c4ccccc4)cc3)nc(-c3cccn3Cc3ccccc3)n2)cc1
138 to 139 °C | CC(C)(C)OC(=O)N1CCC(CCNC(=O)c2noc(-c3ccc(C#N)cc3)n2)CC1
158 °C | COC(=O)CC1CCCN(C(=O)c2ccc(N3CCCC3)cc2Cl)c2ccccc21 (stereo unspecified)
120 °C | O=C(O)c1ccc(CCCCc2ccccc2Oc2ccccc2)cc1
120 to 130 °C | COc1cc(C(=O)NS(=O)(=O)c2ccccc2C)ccc1Cc1c(Cl)n(C)c2ccc(CC(C)NC(=O)N(C)C)cc12 (stereo unspecified)
75 to 76 °C | CC(=O)CCc1ccc(I)cc1
101 to 102 °C | Cc1cccc(C)c1Sc1cc(C(C)(C)C)cc(C(C)(C)C)c1O
152 to 155 °C | CSC(=NC#N)N1CCc2nc(N)sc2C1
137 to 138 °C | COC(=O)c1ccc(-c2nn(Cc3ccccc3)c3ccccc23)o1
222 °C | Cn1cncc1C(O)(c1ccc(Cl)cc1)c1ccc2c(c1)c(-c1cccc(Cl)c1)cc1cnnn12 (stereo unspecified)
213 to 214 °C | CC(C)n1c(=O)nc(N(C)C)[nH]c1=O
200 to 201 °C | O=C(Nc1cccnc1)N1CCN(c2nccc(-c3ccccc3F)n2)CC1
68 to 71 °C | COc1ccc(S(=O)(=O)N2CSC(C)(C)[C@@H]2C(=O)NO)cc1
207 to 208 °C | CN(c1cc(OCCCS(C)(=O)=O)cc2cc(C(=O)O)[nH]c12)S(=O)(=O)c1ccccn1
113 to 114 °C | COc1ccc2cc([C@H](C)C(=O)OCC(=O)N(C)CC(=O)OCCO)ccc2c1
132 to 133 °C | CCOc1nn(Cc2ccc(Cl)cc2Cl)cc1CCCOc1cc(CCC(=O)O)n(-c2ccccc2)n1
180 to 183 °C | CCCCCCCCC(O)C(=O)NCCSSCCNC(=O)C(O)CCCCCCCC (stereo unspecified)
215 to 216 °C | COc1ccc(Cn2c(=O)c3cnc(Nc4ccc(N5CCN(C)CC5)cc4)nc3n(C(C)C)c2=O)cc1
54 to 56 °C | O=C(c1cccc(C(F)(F)F)c1)c1ccc[nH]1
101 °C | C=C1SC(SCc2ccccc2C(=COC)C(=O)OC)=NC1(C)C
170 to 172 °C | COc1cc(C2C3=C(COC3=O)Nc3ccc4cc[nH]c4c32)ccc1F (stereo unspecified)

melting point | Compound
126 to 128 °C | CC(C)Cn1cccc1C(N)=S
104 to 105 °C | CCOC(=O)COc1ccc(NC(=O)OC(C)(C)C)cc1C(F)(F)F
185 to 187 °C | COc1cc2c(s1)c(=O)c(SC)cn2C
236 °C | N=C(NO)c1ccc2nc(N[C@@H]3CCc4ccccc43)ccc2c1
234 to 236 °C | Cn1nc(-c2ccc(Cl)c(NS(C)(=O)=O)c2)c2ccccc2c1=O
201 to 202 °C | COc1cc(Nc2nccc(-c3sc(NCCc4ccccc4)nc3C)n2)cc(OC)c1
273 to 276 °C | O=C(O)c1cc(Cl)cc(Cl)c1NS(=O)(=O)c1ccc(Cl)cc1
174 to 176 °C | O=C(O)C(O)C1CCN(Cc2ccccc2)C1 (stereo unspecified)
278 to 279 °C | Cc1ccc([N+](=O)[O-])c(C(=O)Nc2nnn[nH]2)c1
92.5 to 94 °C | CCCCOC(=O)C1C(C(C)=O)C(=O)N1C(Cc1ccc(OC)cc1)Cc1ccc(OC)cc1 (stereo unspecified)
152 to 155 °C | CC(C)(C)c1nc2cc(N3CCN(c4ccccc4)CC3)c([N+](=O)[O-])cc2s1
145 to 146 °C | Cn1cc(C(=O)Nc2cc(Cl)ccc2-c2cccc(Cl)c2)c(C(F)(Cl)Cl)n1
241 °C | CC(=O)c1ccc2[nH]c3ccc(C(C)=O)cc3c2c1
156 °C | N#Cc1cnn(CCCl)c1N
82 to 83 °C | C[Si](C)(C)c1cc(-c2ccc(F)cc2)c(-c2ccc(F)cc2)o1
155 °C | OCC(CO)OCn1c(Cl)nc2c(Cl)c(Cl)c(Cl)c(Cl)c21
103 °C | CC(NC(=O)n1c(=O)nc(N(C)C)n1C)c1ccccc1 (stereo unspecified)
136 to 138 °C | Cc1nn(-c2cncc(F)c2)cc1N
240 to 250 °C | C[C@@H](NC(=O)c1c[nH]c2ncc(-c3nn(C)c4c(F)c(F)ccc34)nc12)C(=O)N1CC(C#N)C1
87.5 to 92 °C | CCCCCN(CCC12CC3CC(CC(C3)C1)C2)C(=O)NCc1ccccn1
131 to 133 °C | COc1cccc(CN2CCN(CC(=O)N3CC=C(c4cccc(C(F)(F)F)c4)n4cnc(C#N)c43)CC2)c1
205 to 207 °C | O=C1N(Cc2ccc(-c3cccc(Cl)c3)o2)c2ccccc2C12COc1cc3c(cc12)OCO3 (stereo unspecified)
192 to 194 °C | COc1ccc(S(=O)(=O)N2c3ccc(Br)cc3-c3ccccc3C2C)cc1 (stereo unspecified)

Compound | melting point
CN1Cc2c(C(=O)NN)ncn2-c2ccc(F)c(Cl)c2C1=O | 308 to 310 °C
Cc1c(C2=CCC(Cc3ccccc3)(N(C)C)CC2)[nH]c2ccc(C#N)cc12 (stereo unspecified) | 120 to 123 °C
